Source: US9738634B2, “Heterocyclic amide compound and herbicide” (SYNGENTA PARTICIPATIONS AG, priority 2013, dated 2017)

How the values were obtained:
Format in all cases: in vivo
barnyard grass [1] = assay: Test Example 1: weedkilling efficacy, preemergent weed treatment in the submerged state; A: barnyard grass; settings: treatment dosage 252 g/ha
In short: (§1)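 Pre-emergence paddy test: weed seeds sown in submerged alluvial soil (4 cm water), 2.5-leaf rice transplanted, water-diluted emulsion applied to water surface at sowing at stated g/ha. Scored at 3 weeks, greenhouse 25–30 °C.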

bulrush [2] = assay: Test Example 1: weedkilling efficacy, preemergent weed treatment in the submerged state; B: bulrush; settings: treatment dosage 252 g/ha
In short: as §1

oval-leafed pondweed [3] = assay: Test Example 1: weedkilling efficacy, preemergent weed treatment in the submerged state; C: oval-leafed pondweed; settings: treatment dosage 252 g/ha
In short: as §1

transplanted rice = assay: Test Example 1: preemergent weed treatment in the submerged state, effect on crop; a: transplanted rice; settings: treatment dosage 252 g/ha
In short: as §1

barnyard grass [4] = assay: Test Example 2: weedkilling efficacy, growth period weed treatment in the submerged state; A: barnyard grass; settings: treatment dosage 252 g/ha
In short: (§2)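 Seedlings at 1-2 leaves in 4 cm-deep submerged alluvial soil received emulsion formulations on the water surface, dosed per hectare; effects were judged 3 weeks on.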

bulrush [5] = assay: Test Example 2: weedkilling efficacy, growth period weed treatment in the submerged state; B: bulrush; settings: treatment dosage 252 g/ha
In short: as §2

oval-leafed pondweed [6] = assay: Test Example 2: weedkilling efficacy, growth period weed treatment in the submerged state; C: oval-leafed pondweed; settings: treatment dosage 252 g/ha
In short: as §2

crabgrass [7] = assay: Test Example 3: weedkilling efficacy through soil treatment; D: crabgrass; settings: treatment dosage 315 g/ha
In short: (§3)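 Crop and weed responses were judged three weeks after a uniform surface spray of the water-diluted emulsion at the given g/ha rate. Seeds sat beneath about 1.5 cm of sterilized diluvial soil, and boxes stood in a greenhouse at 25 to 30° C.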

green foxtail [8] = assay: Test Example 3: weedkilling efficacy through soil treatment; E: green foxtail; settings: treatment dosage 315 g/ha
In short: as §3

barnyard grass [9] = assay: Test Example 3: weedkilling efficacy through soil treatment; F: barnyard grass; settings: treatment dosage 315 g/ha
In short: as §3

wild oat [10] = assay: Test Example 3: weedkilling efficacy through soil treatment; G: wild oat; settings: treatment dosage 315 g/ha
In short: as §3

black-grass [11] = assay: Test Example 3: weedkilling efficacy through soil treatment; H: black-grass; settings: treatment dosage 315 g/ha
In short: as §3

Italian ryegrass [12] = assay: Test Example 3: weedkilling efficacy through soil treatment; I: Italian ryegrass; settings: treatment dosage 315 g/ha
In short: as §3

common wind-grass [13] = assay: Test Example 3: weedkilling efficacy through soil treatment; J: common wind-grass; settings: treatment dosage 315 g/ha
In short: as §3

Indian mallow [14] = assay: Test Example 3: weedkilling efficacy through soil treatment; K: Indian mallow; settings: treatment dosage 315 g/ha
In short: as §3

redroot pigweed [15] = assay: Test Example 3: weedkilling efficacy through soil treatment; L: redroot pigweed; settings: treatment dosage 315 g/ha
In short: as §3

chickweed [16] = assay: Test Example 3: weedkilling efficacy through soil treatment; N: chickweed; settings: treatment dosage 315 g/ha
In short: as §3

catchweed [17] = assay: Test Example 3: weedkilling efficacy through soil treatment; O: catchweed; settings: treatment dosage 315 g/ha
In short: as §3

birds-eye speedwell [18] = assay: Test Example 3: weedkilling efficacy through soil treatment; p: birds-eye speedwell; settings: treatment dosage 315 g/ha
In short: as §3

directly sown rice [19] = assay: Test Example 3: soil treatment, effect on crop; b: directly sown rice; settings: treatment dosage 315 g/ha
In short: as §3

corn [20] = assay: Test Example 3: soil treatment, effect on crop; c: corn; settings: treatment dosage 315 g/ha
In short: as §3

soybean [21] = assay: Test Example 3: soil treatment, effect on crop; d: soybean; settings: treatment dosage 315 g/ha
In short: as §3

wheat [22] = assay: Test Example 3: soil treatment, effect on crop; e: wheat; settings: treatment dosage 315 g/ha
In short: as §3

beet [23] = assay: Test Example 3: soil treatment, effect on crop; f: beet; settings: treatment dosage 315 g/ha
In short: as §3

rapeseed [24] = assay: Test Example 3: soil treatment, effect on crop; g: rapeseed; settings: treatment dosage 315 g/ha
In short: as §3

crabgrass [25] = assay: Test Example 4: weedkilling efficacy by foliar treatment; D: crabgrass; settings: treatment dosage 315 g/ha
In short: (§4)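 Seeds are spot-sown into sterilized diluvial soil and covered with about 1.5 cm of soil. After 14 days' greenhouse growth at 25 to 30° C, plants are sprayed on stems and leaves with diluted emulsion at the stated g/ha rate, then scored at 3 weeks.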

green foxtail [26] = assay: Test Example 4: weedkilling efficacy by foliar treatment; E: green foxtail; settings: treatment dosage 315 g/ha
In short: as §4

barnyard grass [27] = assay: Test Example 4: weedkilling efficacy by foliar treatment; F: barnyard grass; settings: treatment dosage 315 g/ha
In short: as §4

wild oat [28] = assay: Test Example 4: weedkilling efficacy by foliar treatment; G: wild oat; settings: treatment dosage 315 g/ha
In short: as §4

black-grass [29] = assay: Test Example 4: weedkilling efficacy by foliar treatment; H: black-grass; settings: treatment dosage 315 g/ha
In short: as §4

Italian ryegrass [30] = assay: Test Example 4: weedkilling efficacy by foliar treatment; I: Italian ryegrass; settings: treatment dosage 315 g/ha
In short: as §4

common wind-grass [31] = assay: Test Example 4: weedkilling efficacy by foliar treatment; J: common wind-grass; settings: treatment dosage 315 g/ha
In short: as §4

Indian mallow [32] = assay: Test Example 4: weedkilling efficacy by foliar treatment; K: Indian mallow; settings: treatment dosage 315 g/ha
In short: as §4

redroot pigweed [33] = assay: Test Example 4: weedkilling efficacy by foliar treatment; L: redroot pigweed; settings: treatment dosage 315 g/ha
In short: as §4

chickweed [34] = assay: Test Example 4: weedkilling efficacy by foliar treatment; N: chickweed; settings: treatment dosage 315 g/ha
In short: as §4

catchweed [35] = assay: Test Example 4: weedkilling efficacy by foliar treatment; O: catchweed; settings: treatment dosage 315 g/ha
In short: as §4

birds-eye speedwell [36] = assay: Test Example 4: weedkilling efficacy by foliar treatment; p: birds-eye speedwell; settings: treatment dosage 315 g/ha
In short: as §4

directly sown rice [37] = assay: Test Example 4: foliar treatment, effect on crop; b: directly sown rice; settings: treatment dosage 315 g/ha
In short: as §4

corn [38] = assay: Test Example 4: foliar treatment, effect on crop; c: corn; settings: treatment dosage 315 g/ha
In short: as §4

soybean [39] = assay: Test Example 4: foliar treatment, effect on crop; d: soybean; settings: treatment dosage 315 g/ha
In short: as §4

wheat [40] = assay: Test Example 4: foliar treatment, effect on crop; e: wheat; settings: treatment dosage 315 g/ha
In short: as §4

beet [41] = assay: Test Example 4: foliar treatment, effect on crop; f: beet; settings: treatment dosage 315 g/ha
In short: as §4

rapeseed [42] = assay: Test Example 4: foliar treatment, effect on crop; g: rapeseed; settings: treatment dosage 315 g/ha
In short: as §4

CC1=C(c2ccccc2)C(=O)N(C(C)(C)C(=O)Nc2cc(F)cc(F)n2)CO1 [B-2-33]
A (barnyard grass) weedkilling efficacy grade (barnyard grass [1]): 5 (weed kill ratio 90% or more, (practically complete withering)) | B (bulrush) weedkilling efficacy grade (bulrush [2]): 5 (weed kill ratio 90% or more, (practically complete withering)) | C (oval-leafed pondweed) weedkilling efficacy grade (oval-leafed pondweed [3]): 5 (weed kill ratio 90% or more, (practically complete withering)) | a (transplanted rice) effect on crop grade (transplanted rice): 3 (weed kill ratio 40% or more, less than 70%) | A (barnyard grass) weedkilling efficacy grade (barnyard grass [4]): 5 (weed kill ratio 90% or more, (practically complete withering)) | B (bulrush) weedkilling efficacy grade (bulrush [5]): 5 (weed kill ratio 90% or more, (practically complete withering)) | C (oval-leafed pondweed) weedkilling efficacy grade (oval-leafed pondweed [6]): 5 (weed kill ratio 90% or more, (practically complete withering)) | D (crabgrass) weedkilling efficacy grade (crabgrass [7]): 5 (weed kill ratio 90% or more, (practically complete withering)) | E (green foxtail) weedkilling efficacy grade (green foxtail [8]): 5 (weed kill ratio 90% or more, (practically complete withering)) | F (barnyard grass) weedkilling efficacy grade (barnyard grass [9]): 5 (weed kill ratio 90% or more, (practically complete withering)) | G (wild oat) weedkilling efficacy grade (wild oat [10]): 5 (weed kill ratio 90% or more, (practically complete withering)) | H (black-grass) weedkilling efficacy grade (black-grass [11]): 5 (weed kill ratio 90% or more, (practically complete withering)) | I (Italian ryegrass) weedkilling efficacy grade (Italian ryegrass [12]): 5 (weed kill ratio 90% or more, (practically complete withering)) | J (common wind-grass) weedkilling efficacy grade (common wind-grass [13]): 5 (weed kill ratio 90% or more, (practically complete withering)) | K (Indian mallow) weedkilling efficacy grade (Indian mallow [14]): 5 (weed kill ratio 90% or more, (practically complete withering)) | L (redroot pigweed) weedkilling efficacy grade (redroot pigweed [15]): 4 (weed kill ratio 70% or more, less than 90%) | N (chickweed) weedkilling efficacy grade (chickweed [16]): 4 (weed kill ratio 70% or more, less than 90%) | O (catchweed) weedkilling efficacy grade (catchweed [17]): 5 (weed kill ratio 90% or more, (practically complete withering)) | P (birds-eye speedwell) weedkilling efficacy grade (birds-eye speedwell [18]): 5 (weed kill ratio 90% or more, (practically complete withering)) | b (directly sown rice) effect on crop grade (directly sown rice [19]): 5 (weed kill ratio 90% or more, (practically complete withering)) | c (corn) effect on crop grade (corn [20]): 3 (weed kill ratio 40% or more, less than 70%) | d (soybean) effect on crop grade (soybean [21]): 4 (weed kill ratio 70% or more, less than 90%) | e (wheat) effect on crop grade (wheat [22]): 5 (weed kill ratio 90% or more, (practically complete withering)) | f (beet) effect on crop grade (beet [23]): 1 (weed kill ratio 5% or more, less than 20%) | g (rapeseed) effect on crop grade (rapeseed [24]): 5 (weed kill ratio 90% or more, (practically complete withering)) | D (crabgrass) weedkilling efficacy grade (crabgrass [25]): 5 (weed kill ratio 90% or more, (practically complete withering)) | E (green foxtail) weedkilling efficacy grade (green foxtail [26]): 5 (weed kill ratio 90% or more, (practically complete withering)) | F (barnyard grass) weedkilling efficacy grade (barnyard grass [27]): 5 (weed kill ratio 90% or more, (practically complete withering)) | G (wild oat) weedkilling efficacy grade (wild oat [28]): 5 (weed kill ratio 90% or more, (practically complete withering)) | H (black-grass) weedkilling efficacy grade (black-grass [29]): 5 (weed kill ratio 90% or more, (practically complete withering)) | I (Italian ryegrass) weedkilling efficacy grade (Italian ryegrass [30]): 5 (weed kill ratio 90% or more, (practically complete withering)) | J (common wind-grass) weedkilling efficacy grade (common wind-grass [31]): 5 (weed kill ratio 90% or more, (practically complete withering)) | K (Indian mallow) weedkilling efficacy grade (Indian mallow [32]): 4 (weed kill ratio 70% or more, less than 90%) | L (redroot pigweed) weedkilling efficacy grade (redroot pigweed [33]): 4 (weed kill ratio 70% or more, less than 90%) | N (chickweed) weedkilling efficacy grade (chickweed [34]): 4 (weed kill ratio 70% or more, less than 90%) | O (catchweed) weedkilling efficacy grade (catchweed [35]): 5 (weed kill ratio 90% or more, (practically complete withering)) | P (birds-eye speedwell) weedkilling efficacy grade (birds-eye speedwell [36]): 5 (weed kill ratio 90% or more, (practically complete withering)) | b (directly sown rice) effect on crop grade (directly sown rice [37]): 5 (weed kill ratio 90% or more, (practically complete withering)) | c (corn) effect on crop grade (corn [38]): 3 (weed kill ratio 40% or more, less than 70%) | d (soybean) effect on crop grade (soybean [39]): 4 (weed kill ratio 70% or more, less than 90%) | e (wheat) effect on crop grade (wheat [40]): 4 (weed kill ratio 70% or more, less than 90%) | f (beet) effect on crop grade (beet [41]): 4 (weed kill ratio 70% or more, less than 90%) | g (rapeseed) effect on crop grade (rapeseed [42]): 4 (weed kill ratio 70% or more, less than 90%)
